Target: 11β-HSD1 (Homo sapiens, UniProt P28845)
Assay: biochemical
Details: for IC50: IC50 Range, Biological Test Example 1, microsomes from CHO cells overexpressing human 11β-HSD1; for inhibition at 0.1 µM: read-out: Average % inhibition at 100 nM, Biological Test Example 1, 100 nM

Chain of 11β-HSD1 (P28845 whole entry): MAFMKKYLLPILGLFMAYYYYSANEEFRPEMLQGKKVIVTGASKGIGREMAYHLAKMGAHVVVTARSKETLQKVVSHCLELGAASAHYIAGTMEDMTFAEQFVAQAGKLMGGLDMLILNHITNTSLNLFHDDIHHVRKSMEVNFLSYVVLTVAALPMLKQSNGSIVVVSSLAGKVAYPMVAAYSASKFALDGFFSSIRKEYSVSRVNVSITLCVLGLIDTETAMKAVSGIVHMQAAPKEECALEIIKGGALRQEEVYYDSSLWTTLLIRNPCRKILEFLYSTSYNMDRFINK

IC50	inhibition at 0.1 µM	inhibition at 0.1111 µM (read-out: Average % inhibition at 111.1 nM, Biological Test Example 1, 111.1 nM)	Structure (SMILES)
< 100 nM	94.7%	–	C[C@@H](c1ccc(Br)cc1)N1CC[C@](CCN2CCOCC2)(c2ccccc2)OC1=O [EXAMPLE 397, (R)-3-((S)-1-(4-bromophenyl)ethyl)-6-(2-morpholinoethyl)-6-phenyl-1,3-oxazinan-2-one]
< 100 nM	97.7%	–	CC[C@@H](c1ccc(Br)cc1)N1CC[C@](CCC(N)=O)(c2ccccc2)OC1=O [EXAMPLE 398, 3-((R)-3-((S)-1-(4-bromophenyl)propyl)-2-oxo-6-phenyl-1,3-oxazinan-6-yl)propanamide]
< 100 nM	97.9%	–	C[C@@H](c1ccc(C(F)(F)F)cc1)N1CC[C@](CCO)(c2ccccc2)OC1=O [EXAMPLE 399, (S)-6-(2-hydroxyethyl)-6-phenyl-3-((S)-1-(4-(trifluoromethyl)phenyl)ethyl)-1,3-oxazinan-2-one]
< 100 nM	96.8%	–	C[C@@H](c1ccc(C(F)(F)F)cc1)N1CC[C@](CC(C)(C)O)(c2ccccc2)OC1=O [EXAMPLE 400, (S)-6-(2-hydroxy-2-methylpropyl)-6-phenyl-3-((S)-1-(4-(trifluoromethyl)phenyl)ethyl)-1,3-oxazinan-2-one]
< 100 nM	98.6%	–	C[C@@H](c1ccc(Cl)cc1)N1CC[C@](CCO)(c2ccccc2)OC1=O [EXAMPLE 401, (S)-3-((S)-1-(4-chlorophenyl)ethyl)-6-(2-hydroxyethyl)-6-phenyl-1,3-oxazinan-2-one]
< 100 nM	96.8%	–	C[C@@H](c1ccc(Cl)cc1)N1CC[C@](CC(C)(C)O)(c2ccccc2)OC1=O [EXAMPLE 402, (S)-3-((S)-1-(4-chlorophenyl)ethyl)-6-(2-hydroxy-2-methylpropyl)-6-phenyl-1,3-oxazinan-2-one]
< 100 nM	99.5%	–	C[C@@H](c1ccc(Cl)cc1)N1CC[C@](CCCO)(c2ccccc2)OC1=O [EXAMPLE 403, (R)-3-((S)-1-(4-chlorophenyl)ethyl)-6-(3-hydroxypropyl)-6-phenyl-1,3-oxazinan-2-one]
< 100 nM	91.2%	–	C[C@@H](c1ccc(Cl)cc1)N1CC[C@](CCCNS(C)(=O)=O)(c2ccccc2)OC1=O [EXAMPLE 404, N-(3-((R)-3-((S)-1-(4-chlorophenyl)ethyl)-2-oxo-6-phenyl-1,3-oxazinan-6-yl)propyl)methanesulfonamide]
< 100 nM	86.4%	–	C[C@@H](c1ccc(F)cc1)N1CC[C@](CCO)(c2ccc(F)cc2)OC1=O [EXAMPLE 406, (S)-6-(4-fluorophenyl)-3-((S)-1-(4-fluorophenyl)ethyl)-6-(2-hydroxyethyl)-1,3-oxazinan-2-one]
< 100 nM	94.7%	–	C[C@@H](c1ccc(F)cc1)N1CC[C@](CC(C)(C)O)(c2ccc(F)cc2)OC1=O [EXAMPLE 407, (S)-6-(4-fluorophenyl)-3-((S)-1-(4-fluorophenyl)ethyl)-6-(2-hydroxy-2-methylpropyl)-1,3-oxazinan-2-one]
< 100 nM	90.2%	–	CC(O)C[C@]1(c2ccc(F)cc2)CCN([C@@H](C)c2ccc(F)cc2)C(=O)O1 (stereo partly drawn) [EXAMPLE 408, (6S)-6-(4-fluorophenyl)-3-((S)-1-(4-fluorophenyl)ethyl)-6-(2-hydroxypropyl)-1,3-oxazinan-2-one]
< 100 nM	91.6%	–	C[C@@H](c1ccc(F)cc1)N1CC[C@](CCCNS(C)(=O)=O)(c2ccc(F)cc2)OC1=O [EXAMPLE 409, N-(3-((R)-6-(4-fluorophenyl)-3-((S)-1-(4-fluorophenyl)ethyl)-2-oxo-1,3-oxazinan-6-yl)propyl)methanesulfonamide]
< 100 nM	52%	–	C[C@@H](c1ccc(F)cc1)N1CC[C@](CCC(C)(C)O)(c2ccc(F)cc2)OC1=O [EXAMPLE 410, (R)-6-(4-fluorophenyl)-3-((S)-1-(4-fluorophenyl)ethyl)-6-(3-hydroxy-3-methylbutyl)-1,3-oxazinan-2-one]
< 100 nM	94.7%	–	C[C@@H](c1ccc(F)cc1)N1CC[C@](CCO)(c2ccccc2)OC1=O [EXAMPLE 412, (S)-3-((S)-1-(4-fluorophenyl)ethyl)-6-(2-hydroxyethyl)-6-phenyl-1,3-oxazinan-2-one]
< 100 nM	95.3%	–	C[C@@H](c1ccc(F)cc1)N1CC[C@](CC(C)(C)O)(c2ccccc2)OC1=O [EXAMPLE 413, (S)-3-((S)-1-(4-fluorophenyl)ethyl)-6-(2-hydroxy-2-methylpropyl)-6-phenyl-1,3-oxazinan-2-one]
< 100 nM	94.4%	–	C[C@@H](c1ccc(F)cc1)N1CC[C@](CCCO)(c2ccccc2)OC1=O [EXAMPLE 414, (R)-3-((S)-1-(4-fluorophenyl)ethyl)-6-(3-hydroxypropyl)-6-phenyl-1,3-oxazinan-2-one]
< 100 nM	87.6%	–	C[C@@H](c1ccc(F)cc1)N1CC[C@](CCC(N)=O)(c2ccccc2)OC1=O [EXAMPLE 415, 3-((R)-3-((S)-1-(4-fluorophenyl)ethyl)-2-oxo-6-phenyl-1,3-oxazinan-6-yl)propanamide]

IC50	inhibition at 0.1 µM	inhibition at 0.1111 µM (read-out: Average % inhibition at 111.1 nM, Biological Test Example 1, 111.1 nM)	Structure (SMILES)
< 100 nM	55.1%	–	C[C@@H](c1ccc(F)cc1)N1CC[C@](CCC(C)(C)O)(c2ccccc2)OC1=O [EXAMPLE 416, (R)-3-((S)-1-(4-fluorophenyl)ethyl)-6-(3-hydroxy-3-methylbutyl)-6-phenyl-1,3-oxazinan-2-one]
< 100 nM	97.1%	–	Cc1ccc([C@H](C)N2CC[C@](CC(C)(C)O)(c3ccc(F)cc3)OC2=O)cc1 [EXAMPLE 417, (S)-6-(4-fluorophenyl)-6-(2-hydroxy-2-methylpropyl)-3-((S)-1-p-tolylethyl)-1,3-oxazinan-2-one]
< 100 nM	99.2%	–	Cc1ccc([C@H](C)N2CC[C@](CCCO)(c3ccc(F)cc3)OC2=O)cc1 [EXAMPLE 418, (R)-6-(4-fluorophenyl)-6-(3-hydroxypropyl)-3-((S)-1-p-tolylethyl)-1,3-oxazinan-2-one]
< 100 nM	97.3%	–	Cc1ccc([C@H](C)N2CC[C@](CCCNS(C)(=O)=O)(c3ccc(F)cc3)OC2=O)cc1 [EXAMPLE 420, N-(3-((R)-6-(4-fluorophenyl)-2-oxo-3-((S)-1-p-tolylethyl)-1,3-oxazinan-6-yl)propyl)methanesulfonamide]
< 100 nM	96.1%	–	Cc1ccc([C@H](C)N2CC[C@](CCO)(c3ccc(F)cc3)OC2=O)cc1 [EXAMPLE 421, (S)-6-(4-fluorophenyl)-6-(2-hydroxyethyl)-3-((S)-1-p-tolylethyl)-1,3-oxazinan-2-one]
< 100 nM	100%	–	Cc1ccc([C@H](C)N2CC[C@](CC(C)(C)O)(c3ccccc3)OC2=O)cc1 [EXAMPLE 422, (S)-6-(2-hydroxy-2-methylpropyl)-6-phenyl-3-((S)-1-p-tolylethyl)-1,3-oxazinan-2-one]
< 100 nM	97.6%	–	Cc1ccc([C@H](C)N2CC[C@](CCCO)(c3ccccc3)OC2=O)cc1 [EXAMPLE 423, (R)-6-(3-hydroxypropyl)-6-phenyl-3-((S)-1-p-tolylethyl)-1,3-oxazinan-2-one]
< 100 nM	97%	–	Cc1ccc([C@H](C)N2CC[C@](CCC(N)=O)(c3ccccc3)OC2=O)cc1 [EXAMPLE 424, 3-((R)-2-oxo-6-phenyl-3-((S)-1-p-tolylethyl)-1,3-oxazinan-6-yl)propanamide]
< 100 nM	96.2%	–	COc1ccc([C@H](C)N2CC[C@](CC(C)(C)O)(c3ccc(F)cc3)OC2=O)cc1 [EXAMPLE 425, (S)-6-(4-fluorophenyl)-6-(2-hydroxy-2-methylpropyl)-3-((S)-1-(4-methoxyphenyl)ethyl)-1,3-oxazinan-2-one]
< 100 nM	82.5%	–	COc1ccc([C@H](C)N2CC[C@](CCC(C)(C)O)(c3ccc(F)cc3)OC2=O)cc1 [EXAMPLE 426, (R)-6-(4-fluorophenyl)-6-(3-hydroxy-3-methylbutyl)-3-((S)-1-(4-methoxyphenyl)ethyl)-1,3-oxazinan-2-one]
< 100 nM	97.8%	–	COc1ccc([C@H](C)N2CC[C@](CC(C)(C)O)(c3ccccc3)OC2=O)cc1 [EXAMPLE 427, (S)-6-(2-hydroxy-2-methylpropyl)-3-((S)-1-(4-methoxyphenyl)ethyl)-6-phenyl-1,3-oxazinan-2-one]
< 100 nM	82%	–	COc1ccc([C@H](C)N2CC[C@](CCC(C)(C)O)(c3ccccc3)OC2=O)cc1 [EXAMPLE 428, (R)-6-(3-hydroxy-3-methylbutyl)-3-((S)-1-(4-methoxyphenyl)ethyl)-6-phenyl-1,3-oxazinan-2-one]
–	–	99.4%	Cc1cc(-c2ccc([C@H](C)N3CC[C@](CC(C)(C)O)(c4ccc(F)cc4)OC3=O)cc2)ccn1 [EXAMPLE 449, (S)-6-(4-fluorophenyl)-6-(2-hydroxy-2-methylpropyl)-3-((S)-1-(4-(2-methylpyridin-4-yl)phenyl)ethyl)-1,3-oxazinan-2-one]
< 100 nM	72.3%	–	C[C@@H](c1ccc(-c2ccc(F)cc2)cc1)N1CC[C@](CCN2CCC2)(c2ccc(F)cc2)OC1=O [EXAMPLE 462, (R)-6-(2-(azetidin-1-yl)ethyl)-3-((S)-1-(4′-fluorobiphenyl-4-yl)ethyl)-6-(4-fluorophenyl)-1,3-oxazinan-2-one]
< 100 nM	81.3%	–	C[C@@H](c1ccc(-c2ccc(F)cc2)cc1)N1CC[C@](CCNCCF)(c2ccc(F)cc2)OC1=O [EXAMPLE 463, (R)-3-((S)-1-(4′-fluorobiphenyl-4-yl)ethyl)-6-(2-(2-fluoroethylamino)ethyl)-6-(4-fluorophenyl)-1,3-oxazinan-2-one]
< 100 nM	80.2%	–	C[C@@H](c1ccc(-c2ccc(F)cc2)cc1)N1CC[C@](CCN2CCCC2)(c2ccc(F)cc2)OC1=O [EXAMPLE 464, (R)-3-((S)-1-(4′-fluorobiphenyl-4-yl)ethyl)-6-(4-fluorophenyl)-6-(2-(pyrrolidin-1-yl)ethyl)-1,3-oxazinan-2-one]

From patent publication US8575156B2, “Cyclic inhibitors of 11β-hydroxysteroid dehydrogenase 1” (Vitae Pharmaceuticals, Inc., priority 2007, dated 2013)
